Values quoted from earlier work as cited in patent US6399797B1, “Vitamin D analogues” (Leo Pharmaceutical Products Ltd. A/S (Løvens kemiske Fabrik …, priority 1997, dated 2002).

How the values were obtained:
[1] = tested on: transplanted islets in diabetic NOD mice; conditions: alone or in combination with cyclosporin A
[2] = tested on: experimental animal models; conditions: systemically administered
[3] = tested on: cardiac and small bowel grafts; conditions: rats

Row | SMILES | prevention of autoimmune destruction of transplanted islets [1] | immunosuppressive activities in vivo [2] | survival of cardiac and small bowel grafts [3]
1 | C=C1/C(=C\C=C2/CCC[C@]3(C)[C@@H]([C@@H](C)OCCCC(O)(CC)CC)CC[C@@H]23)C[C@@H](O)C[C@@H]1O [KH 1060] | prevent autoimmune destruction of transplanted islets | have shown immunosuppressive activities in vivo | 
2 | C=C1/C(=C\C=C2/CCC[C@]3(C)[C@@H]([C@H](C)CCCC(C)(C)O)CC[C@@H]23)C[C@@H](O)C[C@@H]1O [MC 1288] |  | have shown immunosuppressive activities in vivo | able to prolong survival of cardiac and small bowel grafts
